Laboratory results: ChEMBL document CHEMBL2203200, “Synthesis and antitrypanosomal activity of new 6,6,7-trisubstituted thiopyrano[2,3-d][1,3]thiazoles” (Bioorg Med Chem Lett, 2012)

Legend:
[1] = test system: Trypanosoma brucei brucei; assay: Antimicrobial activity against bloodstream forms of Trypanosoma brucei brucei 90-13 at 1 ug/ml after 72 hrs by resazurin assay; format: functional; conditions: 90-13, 72 h
[2] = test system: Trypanosoma brucei brucei; assay: Antimicrobial activity against bloodstream forms of Trypanosoma brucei brucei 90-13 at 10 ug/ml after 72 hrs by resazurin assay; format: functional; conditions: 90-13, 72 h
[3] = test system: Trypanosoma brucei gambiense; assay: Antimicrobial activity against bloodstream forms of Trypanosoma brucei gambiense Feo at 10 ug/ml after 72 hrs by resazurin assay; format: functional
[4] = test system: Trypanosoma brucei gambiense; assay: Antimicrobial activity against bloodstream forms of Trypanosoma brucei gambiense Feo at 1 ug/ml after 72 hrs by resazurin assay; format: functional
[5] = test system: Trypanosoma brucei brucei; assay: Antimicrobial activity against bloodstream forms of Trypanosoma brucei brucei 90-13 after 72 hrs by resazurin assay; format: functional, organism-based; conditions: 90-13, 72 h
[6] = test system: Trypanosoma brucei gambiense; assay: Antimicrobial activity against bloodstream forms of Trypanosoma brucei gambiense Feo after 72 hrs by resazurin assay; format: functional, organism-based

| IC50 [5] [µM] | IC50 [6] [µM] | Structure (SMILES) | inhibition at 1 µg/mL [1] [%] | inhibition at 10 µg/mL [2] [%] | inhibition at 10 µg/mL [3] [%] | inhibition at 1 µg/mL [4] [%] |
| --- | --- | --- | --- | --- | --- | --- |
| – | – | COc1cc([C@H]2c3sc(=O)[nH]c3SC[C@@]2(CC(=O)O)C(=O)O)ccc1OCc1ccccc1 (relative stereo) | 18.1 | < 5 | – | – |
| – | – | O=C1C[C@]2(CSc3[nH]c(=O)sc3[C@@H]2c2ccccc2O)C(=O)N1c1ccc(O)cc1 (relative stereo) | 7 | 18.5 | 15.4 | < 5 |
| – | – | COc1ccc([C@H]2c3sc(=O)[nH]c3SC[C@]23CC(=O)N(c2ccc(Cl)cc2)C3=O)cc1 (relative stereo) | 10.6 | 13 | 9.8 | 2.3 |
| 0.262 | 0.423 | COc1ccc([C@H]2c3sc(=O)[nH]c3SC[C@]23CC(=O)N(c2ccc(Cl)cc2)C3=O)cc1OC (relative stereo) | 82.4 | 93.6 | – | – |
| – | – | Cc1cccc(N2C(=O)C[C@]3(CSc4[nH]c(=O)sc4[C@@H]3c3ccccc3O)C2=O)c1 (relative stereo) | 5.5 | 24.5 | 15.3 | < 5 |
| – | – | CCN(CC)c1ccc([C@H]2c3sc(=O)[nH]c3SC[C@@]2(CC(=O)O)C(=O)O)cc1 (relative stereo) | < 5 | 5.6 | – | – |
| 1.28 | 1.47 | CN(C)c1ccc([C@H]2c3sc(=O)[nH]c3SC[C@]23CC(=O)N(c2ccc(Cl)cc2)C3=O)cc1 (relative stereo) | 36.8 | 98.2 | – | – |
| – | – | COc1cc([C@H]2c3sc(=O)[nH]c3SC[C@@]2(CC(=O)O)C(=O)O)ccc1OC(F)F (relative stereo) | 11.3 | < 5 | – | – |
| 0.0032 | 0.0052 | N=C(N)c1ccc(OCCCCCOc2ccc(C(=N)N)cc2)cc1 [PENTAMIDINE] | – | – | – | – |
| – | – | CN(C)c1ccc([C@H]2c3sc(=O)[nH]c3SC[C@@]2(CC(=O)O)C(=O)O)cc1 (relative stereo) | 5.3 | < 5 | – | – |
| – | – | O=C1C[C@]2(CSc3[nH]c(=O)sc3[C@@H]2c2ccccc2O)C(=O)N1c1ccc(Cl)cc1 (relative stereo) | 13.4 | 11.5 | 19.3 | 0.9 |
| 2.4 | 3.62 | CCN(CC)c1ccc([C@H]2c3sc(=O)[nH]c3SC[C@]23CC(=O)N(c2ccc(Cl)cc2)C3=O)cc1 (relative stereo) | 21.1 | 98.2 | – | – |
